Data from ChEMBL document CHEMBL1201862, “PubChem BioAssay data set” (2004).
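Each compound was tested at five concentrations against cells in 96-well plates for 48 hours. GI50 marks 50% less growth.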 Calls of active or inactive are those of the source. Cut-off read from the data, not from the text of the source: active = GI50 up to about 1.1 µM and inactive = higher.

What was measured:
Assay in all cases: growth of human tumour cells (NCI), 48 h
A498 = system: A498
A549 = system: A549
CCRF-CEM = system: CCRF-CEM
HCC 2998 = system: HCC 2998
HOP-62 = system: HOP-62
HT-29 = system: HT-29
IGROV-1 = system: IGROV-1
K562 = system: K562
KM12 = system: KM12
Malme-3M = system: Malme-3M
NCI/ADR-RES = system: NCI/ADR-RES
OVCAR-3 = system: OVCAR-3
OVCAR-5 = system: OVCAR-5
SK-MEL-5 = system: SK-MEL-5
SNB-19 = system: SNB-19
SR = system: SR
U-251 = system: U-251
UACC-257 = system: UACC-257
NCI-H460 = system: NCI-H460
T47D = system: T47D

| Compound | GI50 (A498) | GI50 (A549) | GI50 (CCRF-CEM) | GI50 (HCC 2998) | GI50 (HOP-62) | GI50 (HT-29) | GI50 (IGROV-1) | GI50 (K562) | GI50 (KM12) | GI50 (Malme-3M) | GI50 (NCI/ADR-RES) | GI50 (OVCAR-3) | GI50 (OVCAR-5) | GI50 (SK-MEL-5) | GI50 (SNB-19) | GI50 (SR) | GI50 (U-251) | GI50 (UACC-257) | GI50 (NCI-H460) | GI50 (T47D) |
| --- | --- | --- | --- | --- | --- | --- | --- | --- | --- | --- | --- | --- | --- | --- | --- | --- | --- | --- | --- | --- |
| CCC(/C=C/C1OC(=O)C=CC1C)=C\C(C)C/C=C/C(C)=C/C(C)C(=O)C(C)C(O)C(C)C/C(C)=C/C(=O)O (configuration not stated) | 2.08 µM (inactive) | 0.946 µM (active) | 0.895 µM (active) | 6.76e-06 µM (active) | 2.62 µM (inactive) | 3.01e-06 µM (active) | 4.07 µM (inactive) | 1.02 µM (active) | 4.54 µM (inactive) | 1.44 µM (inactive) | 0.000115 µM (active) | 0.649 µM (active) | 6.65 µM (inactive) | 4.88e-05 µM (active) | 3.09 µM (inactive) | < 1e-06 µM (active) | 2.26 µM (inactive) | 1.62 µM (inactive) |  |  |
| CCOC(=O)C(=O)Nc1c(F)cc(F)cc1Br | > 100 µM (inactive) | > 100 µM (inactive) | > 100 µM (inactive) | > 100 µM (inactive) | > 100 µM (inactive) | > 100 µM (inactive) | > 100 µM (inactive) | > 100 µM (inactive) | > 100 µM (inactive) | > 100 µM (inactive) |  | > 100 µM (inactive) | > 100 µM (inactive) | > 100 µM (inactive) | > 100 µM (inactive) | > 100 µM (inactive) | > 100 µM (inactive) | > 100 µM (inactive) | > 100 µM (inactive) |  |
| CC(=O)OCC1OC(OC2CC3C(C)(C)C(OC(C)=O)CC[C@]3(C)C3CCC45CC4(CC[C@H]5C(C)CC(O)C4OC4(C)C)[C@]23C)C(O)C(O)C1O (some centres not stated) | 4.72 µM (inactive) | 2.09 µM (inactive) | 1.04 µM (active) | 1.37 µM (inactive) | 5.56 µM (inactive) | 0.92 µM (active) | 0.0715 µM (active) | 1.13 µM (inactive) | 1.35 µM (inactive) | 7.98 µM (inactive) |  | 2.58 µM (inactive) | 1.03 µM (active) | 2.69 µM (inactive) | 4.06 µM (inactive) | 2.65 µM (inactive) | 1.82 µM (inactive) | 1.98 µM (inactive) | 1.79 µM (inactive) |  |
| Cc1csc2c(=O)n(COCc3ccccc3)c(=O)[nH]c12 | > 100 µM (inactive) | > 100 µM (inactive) | > 100 µM (inactive) |  | 59.8 µM (inactive) | > 100 µM (inactive) | > 100 µM (inactive) | > 100 µM (inactive) | > 100 µM (inactive) | > 100 µM (inactive) | > 100 µM (inactive) | > 100 µM (inactive) | > 100 µM (inactive) | 91.2 µM (inactive) | > 100 µM (inactive) | > 100 µM (inactive) | > 100 µM (inactive) | > 100 µM (inactive) | > 100 µM (inactive) |  |
| COc1ccc2c(=O)c(-c3cc(OC)c(OC)cc3OC)coc2c1 | 8.45 µM (inactive) | 5.41 µM (inactive) | 1.56 µM (inactive) | 2.94 µM (inactive) | 3.72 µM (inactive) | 2.35 µM (inactive) | 19.2 µM (inactive) | 1.11 µM (active) | 2.74 µM (inactive) | 4.54 µM (inactive) |  | 1.84 µM (inactive) | > 100 µM (inactive) | 1.55 µM (inactive) | 15.3 µM (inactive) | 1.27 µM (inactive) | 2.19 µM (inactive) | 11.3 µM (inactive) | 2.48 µM (inactive) | 6.7 µM (inactive) |
| O=C1NC(=O)C(COCc2ccccc2)C2=C1SCCC2 (configuration not stated) | > 100 µM (inactive) | > 100 µM (inactive) | > 100 µM (inactive) | > 100 µM (inactive) | > 100 µM (inactive) | > 100 µM (inactive) | > 100 µM (inactive) | > 100 µM (inactive) | > 100 µM (inactive) | > 100 µM (inactive) | > 100 µM (inactive) | > 100 µM (inactive) |  | > 100 µM (inactive) | > 100 µM (inactive) | > 100 µM (inactive) | > 100 µM (inactive) | > 100 µM (inactive) | > 100 µM (inactive) |  |
| CN(C)CCCN1N=Nc2cccc3cccc1c23 | 78.7 µM (inactive) | > 100 µM (inactive) | 27.9 µM (inactive) | > 59 µM (inactive) | > 100 µM (inactive) | 33.3 µM (inactive) | > 100 µM (inactive) | 26.7 µM (inactive) | > 79.3 µM (inactive) | > 100 µM (inactive) |  | > 100 µM (inactive) | > 91.4 µM (inactive) | > 84.9 µM (inactive) | > 100 µM (inactive) | 26.5 µM (inactive) | > 74.3 µM (inactive) | > 91.8 µM (inactive) | 33.1 µM (inactive) |  |
| CC12OC1(C)C1C(=O)OCC1C2=O (configuration not stated) | > 100 µM (inactive) | > 100 µM (inactive) | 17.5 µM (inactive) | > 100 µM (inactive) | 41 µM (inactive) | 49.7 µM (inactive) | 32.4 µM (inactive) | 28.2 µM (inactive) | 44.7 µM (inactive) | 17.6 µM (inactive) | 51.3 µM (inactive) | 38.9 µM (inactive) | 59.4 µM (inactive) | > 100 µM (inactive) | 61.1 µM (inactive) | 21 µM (inactive) | > 100 µM (inactive) | > 100 µM (inactive) | > 100 µM (inactive) |  |
| CO/N=C/c1c(-c2ccc(Cl)cc2)c(/C=N/OC)n2c1sc1ccccc12 |  | > 100 µM (inactive) | 70.1 µM (inactive) | > 100 µM (inactive) | > 100 µM (inactive) | 81.8 µM (inactive) | > 100 µM (inactive) | > 100 µM (inactive) | > 100 µM (inactive) | > 100 µM (inactive) | > 100 µM (inactive) | > 100 µM (inactive) | > 100 µM (inactive) | > 100 µM (inactive) | > 100 µM (inactive) |  | > 100 µM (inactive) | > 100 µM (inactive) | > 100 µM (inactive) | 21.2 µM (inactive) |
| CC(=O)N1c2cc(/N=N/N(C)C)ccc2NC(=O)CC1C (configuration not stated) |  | > 100 µM (inactive) | > 100 µM (inactive) | > 100 µM (inactive) | > 100 µM (inactive) | > 100 µM (inactive) | > 100 µM (inactive) | > 100 µM (inactive) | > 100 µM (inactive) | > 100 µM (inactive) | > 100 µM (inactive) | > 100 µM (inactive) | > 100 µM (inactive) | > 100 µM (inactive) | > 100 µM (inactive) |  | > 100 µM (inactive) | > 100 µM (inactive) | > 100 µM (inactive) | > 100 µM (inactive) |
| CC(C)(C)n1c(=O)[nH]c(=O)n1C(C)(C)C | > 100 µM (inactive) | > 100 µM (inactive) | > 100 µM (inactive) | > 100 µM (inactive) | > 100 µM (inactive) | > 100 µM (inactive) | > 100 µM (inactive) | > 100 µM (inactive) | > 100 µM (inactive) | > 100 µM (inactive) | > 100 µM (inactive) | > 100 µM (inactive) | > 100 µM (inactive) | > 100 µM (inactive) | > 100 µM (inactive) | > 100 µM (inactive) | > 100 µM (inactive) | > 100 µM (inactive) | > 100 µM (inactive) |  |
| O=C1/C(=C/c2ccccc2)CN(C(=O)Oc2ccc([N+](=O)[O-])cc2)C/C1=C\c1ccccc1 | > 10 µM (inactive) | > 10 µM (inactive) | 1.38 µM (inactive) | 2.74 µM (inactive) | > 10 µM (inactive) | 1.42 µM (inactive) | 6.84 µM (inactive) | 0.859 µM (active) | 0.661 µM (active) | > 10 µM (inactive) |  | 3.73 µM (inactive) | > 10 µM (inactive) | 3.64 µM (inactive) | 6.65 µM (inactive) | 2.1 µM (inactive) | 1.77 µM (inactive) | 5.18 µM (inactive) | 6.03 µM (inactive) |  |
| CCC(C)C(Nc1c2ccccc2nc2c(C(=O)NCCN(C)C)cccc12)C(=O)O (configuration not stated) | 16.9 µM (inactive) | 12.3 µM (inactive) | 24.3 µM (inactive) |  | 13 µM (inactive) | 3.21 µM (inactive) | 14.7 µM (inactive) | 21.6 µM (inactive) | 14.8 µM (inactive) | 12.3 µM (inactive) | 10.4 µM (inactive) | 23.6 µM (inactive) | 21.3 µM (inactive) | 15.7 µM (inactive) | 8.28 µM (inactive) | 46.6 µM (inactive) | 25.2 µM (inactive) |  |  |  |
| S=C1SC(c2ccc(Cl)cc2)(c2ccc(Cl)cc2)c2ccccc21 | 81.8 µM (inactive) | 77.6 µM (inactive) | 43.7 µM (inactive) | 59.8 µM (inactive) | > 100 µM (inactive) | 28 µM (inactive) | > 100 µM (inactive) | 64.9 µM (inactive) | 40.3 µM (inactive) | > 100 µM (inactive) | > 100 µM (inactive) | 72.1 µM (inactive) | > 100 µM (inactive) | 64 µM (inactive) | > 100 µM (inactive) | 20.4 µM (inactive) | > 100 µM (inactive) | 31 µM (inactive) | > 100 µM (inactive) |  |
| O=[N+]([O-])c1ccc(-c2ccc(/C=N/n3c(S)nnc3-c3ccc(Cl)cc3)o2)cc1 | > 100 µM (inactive) | 28 µM (inactive) | 37.2 µM (inactive) | > 72.4 µM (inactive) | 17.5 µM (inactive) | 22 µM (inactive) | > 81.3 µM (inactive) | 19.2 µM (inactive) | 22.8 µM (inactive) | 17.4 µM (inactive) |  | 27.9 µM (inactive) | > 100 µM (inactive) | 20.5 µM (inactive) | 23 µM (inactive) | 22.3 µM (inactive) | 21.6 µM (inactive) | > 57.5 µM (inactive) | 21.5 µM (inactive) |  |
